Columns and labels:
M6PR [1] = biological target: T1, M6PR (Homo sapiens, UniProt P11717); test: M6P competition of IDUA-myc uptake in HUVEC; assay type: cell-based
T1 construct: endogenous in cells; host or cells: HUVEC (parental, or transduced with LV-143Spg / control LV)

M6PR [2] = biological target: T1, M6PR; test: M6P competition of IDUA-myc uptake in hCMEC/D3 cells; assay type: cell-based; conditions: 1 h exposure to IDUA-myc conditioned medium (~20,000 U/mL), read-out: Median inhibitory concentration (IC50) of IDUA-myc uptake

T1 sequence (P11717 41-2491): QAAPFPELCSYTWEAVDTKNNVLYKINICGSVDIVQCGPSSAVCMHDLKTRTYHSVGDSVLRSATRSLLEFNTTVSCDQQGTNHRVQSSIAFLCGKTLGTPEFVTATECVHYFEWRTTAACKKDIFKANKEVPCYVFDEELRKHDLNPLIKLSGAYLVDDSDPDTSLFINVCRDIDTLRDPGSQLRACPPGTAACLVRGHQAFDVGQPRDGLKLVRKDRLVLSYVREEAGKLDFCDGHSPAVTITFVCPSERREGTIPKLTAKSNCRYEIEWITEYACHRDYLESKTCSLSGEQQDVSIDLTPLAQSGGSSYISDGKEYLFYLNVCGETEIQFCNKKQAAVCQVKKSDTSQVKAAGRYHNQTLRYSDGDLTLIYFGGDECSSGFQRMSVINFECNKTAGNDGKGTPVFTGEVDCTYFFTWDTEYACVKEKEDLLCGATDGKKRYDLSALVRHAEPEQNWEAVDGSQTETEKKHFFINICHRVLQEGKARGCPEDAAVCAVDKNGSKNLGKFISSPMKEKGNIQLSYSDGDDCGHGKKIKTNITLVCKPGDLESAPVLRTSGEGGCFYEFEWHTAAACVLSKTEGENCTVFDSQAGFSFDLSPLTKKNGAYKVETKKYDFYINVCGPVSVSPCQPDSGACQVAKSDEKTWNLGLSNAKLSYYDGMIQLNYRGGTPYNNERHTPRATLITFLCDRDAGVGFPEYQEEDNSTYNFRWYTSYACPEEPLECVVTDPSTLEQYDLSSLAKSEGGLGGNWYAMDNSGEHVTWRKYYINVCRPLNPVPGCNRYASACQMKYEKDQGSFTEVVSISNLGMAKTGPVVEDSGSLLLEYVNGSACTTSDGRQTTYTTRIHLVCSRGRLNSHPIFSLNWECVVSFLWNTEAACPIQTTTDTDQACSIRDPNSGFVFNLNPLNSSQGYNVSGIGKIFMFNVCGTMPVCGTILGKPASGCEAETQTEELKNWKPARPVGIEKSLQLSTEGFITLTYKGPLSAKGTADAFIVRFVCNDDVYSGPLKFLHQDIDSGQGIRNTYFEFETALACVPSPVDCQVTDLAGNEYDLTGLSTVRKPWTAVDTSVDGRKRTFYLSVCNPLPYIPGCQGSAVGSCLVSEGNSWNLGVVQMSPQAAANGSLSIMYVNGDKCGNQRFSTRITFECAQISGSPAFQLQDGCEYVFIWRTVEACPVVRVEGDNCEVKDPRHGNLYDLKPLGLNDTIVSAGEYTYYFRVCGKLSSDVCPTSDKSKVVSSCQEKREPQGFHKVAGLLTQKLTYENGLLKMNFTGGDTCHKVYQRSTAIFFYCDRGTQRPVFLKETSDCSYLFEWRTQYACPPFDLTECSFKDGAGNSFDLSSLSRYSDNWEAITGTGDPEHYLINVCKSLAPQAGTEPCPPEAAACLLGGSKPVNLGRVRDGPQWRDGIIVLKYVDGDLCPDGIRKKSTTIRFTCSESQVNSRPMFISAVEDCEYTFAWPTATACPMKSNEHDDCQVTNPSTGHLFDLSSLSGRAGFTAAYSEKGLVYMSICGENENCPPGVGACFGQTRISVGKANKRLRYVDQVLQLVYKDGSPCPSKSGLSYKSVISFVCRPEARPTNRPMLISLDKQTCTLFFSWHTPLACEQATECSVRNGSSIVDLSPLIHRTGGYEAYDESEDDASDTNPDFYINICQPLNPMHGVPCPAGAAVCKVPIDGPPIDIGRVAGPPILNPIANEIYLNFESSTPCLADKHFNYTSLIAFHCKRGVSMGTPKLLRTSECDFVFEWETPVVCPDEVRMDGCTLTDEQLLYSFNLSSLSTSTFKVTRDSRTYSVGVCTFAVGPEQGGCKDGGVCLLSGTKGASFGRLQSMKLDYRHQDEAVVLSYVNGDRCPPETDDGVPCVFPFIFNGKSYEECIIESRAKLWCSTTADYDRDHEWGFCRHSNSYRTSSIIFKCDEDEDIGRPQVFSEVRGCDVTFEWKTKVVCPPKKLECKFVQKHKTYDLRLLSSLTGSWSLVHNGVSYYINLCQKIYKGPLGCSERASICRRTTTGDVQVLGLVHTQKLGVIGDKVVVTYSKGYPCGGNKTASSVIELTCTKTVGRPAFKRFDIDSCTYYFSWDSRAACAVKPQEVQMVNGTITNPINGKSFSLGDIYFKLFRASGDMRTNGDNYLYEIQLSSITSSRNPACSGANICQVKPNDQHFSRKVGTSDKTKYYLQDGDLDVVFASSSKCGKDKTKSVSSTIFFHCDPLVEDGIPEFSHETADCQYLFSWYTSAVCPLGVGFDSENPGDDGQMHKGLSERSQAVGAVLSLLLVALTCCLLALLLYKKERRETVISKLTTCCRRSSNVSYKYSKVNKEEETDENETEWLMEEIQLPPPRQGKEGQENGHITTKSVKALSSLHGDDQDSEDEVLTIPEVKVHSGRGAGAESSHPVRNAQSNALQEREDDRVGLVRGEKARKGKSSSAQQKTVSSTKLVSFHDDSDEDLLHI

With O=C[C@@H](O)[C@@H](O)[C@H](O)[C@H](O)COP(=O)(O)O [M6P inhibitor, mannose 6-phosphate] the IC50 (M6PR [1]; 1 h exposure to IDUA-myc conditioned medium (~20,000 U/mL), read-out: Median inhibitory concentration (IC50) of IDUA-myc uptake) was 347 µM, the “M6PR-independent uptake (plateau)” value (M6PR [1]; residual uptake under M6P competition) was roughly 18% and the IC50 (M6PR [2]) was 57.2 µM.
